This experiment has as its target High affinity cGMP-specific 3',5'-cyclic phosphodiesterase 9A (Homo sapiens, UniProt O76083). As to the kind of experiment: Inhibition of recombinant human PDE9A1 by radiometric assay.

pIC50: −log10 of the molar value.

Sequence of High affinity cGMP-specific 3',5'-cyclic phosphodiesterase 9A (O76083 whole entry): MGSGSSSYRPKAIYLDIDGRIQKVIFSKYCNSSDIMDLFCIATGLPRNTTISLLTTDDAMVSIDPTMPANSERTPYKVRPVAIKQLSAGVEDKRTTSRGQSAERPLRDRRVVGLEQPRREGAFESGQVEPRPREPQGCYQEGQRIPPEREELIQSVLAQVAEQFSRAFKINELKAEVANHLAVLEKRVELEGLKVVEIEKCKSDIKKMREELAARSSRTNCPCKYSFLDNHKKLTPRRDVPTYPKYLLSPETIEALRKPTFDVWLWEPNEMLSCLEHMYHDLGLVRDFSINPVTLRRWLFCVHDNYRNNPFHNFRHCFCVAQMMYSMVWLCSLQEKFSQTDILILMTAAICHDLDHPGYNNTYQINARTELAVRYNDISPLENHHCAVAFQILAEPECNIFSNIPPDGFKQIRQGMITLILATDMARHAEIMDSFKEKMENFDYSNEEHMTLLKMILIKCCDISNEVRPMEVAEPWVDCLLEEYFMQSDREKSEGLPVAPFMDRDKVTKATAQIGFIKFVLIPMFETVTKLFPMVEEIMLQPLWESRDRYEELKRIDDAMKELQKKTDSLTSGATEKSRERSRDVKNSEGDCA

As usually defined, the pIC50 is the negative decadic logarithm of the IC50, by convention in mol/L. `C[C@@H]1CN(Cc2ncccn2)C[C@H]1c1cn2c(C3CCOCC3)ncc2c(=O)[nH]1` [US10513524, Compound (P3]: the pIC50 is 8.09.
